Tested on: common cocklebur
Experiment: Test Example 4: field spray, herbicidal activity (flumiclorac-pentyl)
Type: in vivo, Xanthium strumarium
Conditions: index 0-100; common cocklebur height about 65 cm; 100 g/hectare alone; 1000 liters per hectare spray; after 4 days
Procedure: The herbicidal effect is evaluated with indices of 0 to 100 at intervals of 5, wherein “0” means that there was no or little difference in the degree of germination or growth between the treated plants and the untreated plants at the time of examination, “100” means that the test plants died completely.
Ten (10) parts of flumiclorac-pentyl were dissolved in 80 parts of xylene, after adding 10 parts of Sorpol 3005X (produced by Toho Chemical), the solution was well stirred and mixed to give 10% emulsifiable concentrate of flumiclorac-pentyl. From the aqueous dilution of said 10% emulsifiable concentrate of flumiclorac-pentyl, with a aqueous dilution of 25% emulsifiable concentrate of thiometon (commercial name: Ekatin EC, produced by Sankyo), 45% emulsifiable concentrate of oxydeprofos (commercial name: Estox EC, produced by Nihon Bayer Agrochem) or 50% emulsifiable concentrate of fenthion (commercial name: baycid EC, produced by Nihon Bayer Agrochem), prepared each aqueous dilution of the prescribed concentration of the present formulation.
Their aqueous dilution of the present formulation, with 1000 liters per hectare, were sprayed over a place in the field where common cocklebur (the height: about 65 cm) were growing. After 4 days from the application, the herbicidal activity were examined.

Work on `CCCCCOC(=O)COc1cc(N2C(=O)C3=C(CCCC3)C2=O)c(F)cc1Cl` [flumiclorac-pentyl, pentyl[2-chloro-5-(cyclohex-1-ene-1,2-dicarboximido)-4-fluorophenoxy]acetate] yielded a Herbicidal activity of 30.

Source: patent US6521567B2, “Herbicidal composition” (priority 2001, dated 2003)
